Holding throughout (format): cell-based, human
Data set [1] deals with LNCaP prostate cancer cells. Nature of the data set: Cell viability assay (PrestoBlue) on LNCaP cells. Conditions: 72 h treatment, PrestoBlue, mean of three independent experiments ± SEM, read-out: LNCaP GI50. The method, then: (§1) The human prostate cancer cell line PC-3 (ATCC Cat# CRL-1435) was grown in Ham’s F12 (Biowest, Nuaillé, France) medium, while the human prostate cancer cell line LNCaP (ATCC Cat# CRL-1740) was grown in RPMI 1640 (Biowest, Nuaillé, France) medium. Both media were supplemented with 10% Fetal Bovine Serum (FBS, Gibco, Fisher Scientific Italia, Segrate, Italy), 2 mM glutamine, 100 U/mL penicillin, and 100 μg/mL streptomycin. PC-3 and LNCaP cells were maintained at 37 °C in a humidified 5% CO2 atmosphere.
(§2) PC-3 and LNCaP cells were seeded at a density of 4000 and 6000 cells/well into a 96-well plate, respectively, together with a calibration curve of known cell numbers. The following day, the cells were treated with the indicated test compounds at different concentrations starting at 75μM with 2-fold serial dilutions. Cell viability was evaluated after 72h by colorimetric MTT (PC-3) or PrestoBlue™ (LNCaP) cell viability reagents. A total of 0.5 mg/mL of thiazolyl blue tetrazolium bromide (MTT) (Sigma-Aldrich, St. Louis, MO, USA) in Ham’s F12 medium was added to the wells, and the plate was incubated at 37 °C for 2 h. Medium containing unconverted MTT was removed, and 100 μL of MTT solvent (4 mM HCl, 0.1% NP40, in isopropyl alcohol) was added to the wells in order to solubilize MTT crystals. After 15 min of incubation at room temperature, the absorbance values at 570 nm were obtained with a Multiskan FC Microplate Photometer (Thermo Fisher Scientific, Waltham, MA, USA). PrestoBlue reagent (#A13261, Thermo Fisher Scientific, Waltham, MA, USA) was added to the medium (1:10 v/v) and incubated for 1 h at 37 °C. Cell viability was calculated by quantifying PrestoBlue reduction by measuring the absorbance at 570 and 620 nm, according to the manufacturer’s protocol. The viability of untreated cells was arbitrarily set at 100%, and the concentration at which cellular growth is inhibited by 50% (GI50) was determined. Three independent experiments were performed.

The test system of data set [2] is PC-3 prostate cancer cells. Nature of the data set: Cell viability assay (MTT) on PC-3 cells. Conditions: 72 h treatment, MTT, mean of three independent experiments ± SEM, read-out: PC-3 GI50. The method, then: as §1, §2
The subject of data set [3] is acetylated tubulin (Ac-Tub) in PC-3 cells. Briefly: Western blot of acetylated α-Tubulin in PC-3 cells. Conditions: 24 h at GI50 concentration, normalized with Tubulin. The method, then:
(§3) To assess whether the observed antiproliferative activity of the selected compounds was a consequence of HDAC6-targeting, we examined the effect of the cell treatments on the expression levels of acetylated tubulin (Ac-Tub), a well-known HDAC6 target. LNCaP and PC-3 cells were treated with the tested compounds at their GI50 concentrations, and SDS-PAGE and western blot were performed. In addition, the acetylation levels of histone H3, which are mainly regulated by HDAC1, were also evaluated in order to exclude potential class I-HDAC off-target activities. We used Tubastatin-A and Geldanamycin as reference controls for cellular effects resulting from HDAC6- and Hsp90-inhibition, respectively. The results in Figure 2 show a significant increase in α-Tubulin acetylation in LNCaP cells after treatments with compounds 8, 11 and 18. Indeed, these compounds triggered a 2.9-, 5.1-, and 2.5-fold increase, respectively, compared to the control (DMSO). […].
Figure 2 Western blot analysis and relative quantification of the expression levels of acetylated-Tubulin (Ac-TUB), acetylated H3 (Ac-H3), and HSP70 in LNCaP (A,B) and PC-3 (C,D) cells treated for 24 h at GI50 concentration. […]
Cell treatment. […] Protein quantitation was performed with Pierce Detergent Compatible Bradford Assay (#23246, Thermo Fisher Scientific, MA, USA), and equivalent amounts of cellular extracts were resolved by SDS-PAGE, transferred to PVDF or Nitrocellulose membrane with Trans-Blot Turbo Transfer System (Bio-Rad, Hercules, CA, USA), and immunoblotted with the following primary antibodies, diluted 1:1000 in 1× TBS with 1 mg/mL BSA: Anti-Histone H3 (#PA5-16183, Invitrogen, Thermo Fisher Scientific, MA, USA), Anti-acetylated histone H3 (#sc-518011, Santa Cruz Biotechnology, Inc., Dallas, TX, USA), Anti-Tubulin (#E-AB-20073, Elabscience, Houston, TX, USA), Anti-acetylated α-tubulin (#sc-23950, Santa Cruz), and Anti-HSP70 (#4872S, Cell Signaling Technology, Inc., Danvers, MA, USA). […]
(A western blot detects proteins with antibodies after separation by electrophoresis.)

For data set [4], the system named is acetylated H3 (Ac-H3) in LNCaP cells. Nature of the data set: Western blot of acetylated histone H3 in LNCaP cells. Conditions: 24 h at GI50 concentration. The method, then:
as §3
(§4) Figure 2 Western blot analysis and relative quantification of the expression levels of acetylated-Tubulin (Ac-TUB), acetylated H3 (Ac-H3), and HSP70 in LNCaP (A,B) and PC-3 (C,D) cells treated for 24 h at GI50 concentration. Tubastatin-A was used as HDAC6-specific positive control, Geldanamycin (GELDA) as HSP90-specific positive control, and SAHA as pan-HDAC inhibitor. […]

Data set [5] concerns acetylated H3 (Ac-H3) in PC-3 cells. Briefly: Western blot of acetylated histone H3 in PC-3 cells. Conditions: 24 h at GI50 concentration. The method, then: as §3, §4

From paper PMC11357446, “Searching for Novel HDAC6/Hsp90 Dual Inhibitors with Anti-Prostate Cancer Activity: In Silico Screening and In Vitro Evaluation” (Pharmaceuticals, 2024) come the findings set out here.

Like-named read-outs stand apart in the source and are kept apart here.

On to `O=C(c1cc(OCc2ccccc2)ccc1O)N1CCC(c2noc(C(F)(F)F)n2)CC1` [Compound 8], for which the GI50 (as a rule, the concentration at which growth is held to half of that of the control) in data set [1] was 51.6 ± 3.7 µM; in data set [1] (Homo sapiens, LNCaP, 72 h), approximately 50 µM; in data set [2] it was 51.8 ± 0.6 µM; in data set [2] (Homo sapiens, PC-3, 72 h) it was approximately 50 µM. The “α-Tubulin acetylation, fold induction versus DMSO control” value in data set [3] amounted to 7.3 fold. The “induction of H3 acetylation” value in data set [4] and in data set [5] was “no remarkable induction of H3 acetylation” each time.
Regarding `CC(C)[C@H](C(=O)NCc1ccc(C(=O)NO)cc1)N1Cc2ccccc2C1=O` [Compound 11], the GI50 in data set [1] (Homo sapiens, LNCaP, 72 h) worked out at 41.3 ± 8.7 µM; in data set [2] (Homo sapiens, PC-3, 72 h), 13.9 ± 2.9 µM. Moreover, the “α-Tubulin acetylation, fold induction versus DMSO control” value in data set [3] came out at 5.5 fold.
As for `O=C(Nc1ncccc1O)c1ccc(-c2noc(C(F)(F)F)n2)cc1` [Compound 18], the GI50 in data set [1] (Homo sapiens, LNCaP, 72 h) was more than 75 µM; in data set [2] (Homo sapiens, PC-3, 72 h), 21 ± 5.4 µM. Besides, the “α-Tubulin acetylation, fold induction versus DMSO control” value in data set [3] stood at 4.9 fold.
